# Results from PMC5110245, “Identification and reconstitution of the rubber biosynthetic machinery on rubber particles from Hevea brasiliensis” (eLife, 2016).
# Assays:
# Format in all cases: biochemical
# HRT1–HRBP–REF = biological target: T1, HRT1–HRBP–REF (Hevea brasiliensis, UniProt Q8L5B7); test: […]-IPP incorporation into rubber, allylic substrate dependency; settings: allylic primer 15 µM; 100 µM [4-14C]IPP, 5 mM MgCl2, pH 7.5, 30 °C, 8 h; on WRPs
# T1 construct: gene Hpt4; full-length CDSs, wheat germ cell-free co-translation onto CHAPS-washed Hevea rubber particles (WRPs); HRBP His6-tagged; stoichiometry not known; endogenous background present; Rubber elongation factor protein
# T1 sequence (P15252 2-138, one chain of several): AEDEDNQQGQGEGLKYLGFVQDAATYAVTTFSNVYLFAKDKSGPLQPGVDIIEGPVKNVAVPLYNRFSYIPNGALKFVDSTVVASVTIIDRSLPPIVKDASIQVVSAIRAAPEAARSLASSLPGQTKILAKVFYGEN
# T1 sequence (A0A1E1GJI0 entry or part of it, one chain of several, further chain): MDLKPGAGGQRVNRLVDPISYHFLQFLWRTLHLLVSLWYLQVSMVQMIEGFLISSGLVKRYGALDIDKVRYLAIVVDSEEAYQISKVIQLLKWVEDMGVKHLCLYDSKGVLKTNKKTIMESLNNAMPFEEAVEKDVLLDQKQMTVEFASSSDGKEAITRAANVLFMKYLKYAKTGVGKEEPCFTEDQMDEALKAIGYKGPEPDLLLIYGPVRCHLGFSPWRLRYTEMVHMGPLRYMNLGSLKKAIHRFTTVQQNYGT
# HRT1 = biological target: T2, HRT1 (Hevea brasiliensis, UniProt Q8L5B7); test: […]-IPP incorporation into rubber, net of vector-control WRPs; settings: 15 µM FPP, 5 mM MgCl2, pH 7.5, 30 °C; on WRPs; labelled compound
# T2 construct: gene Hpt4; full-length CDS in pEU-E01-His-TEV-MCS-N2; wheat germ cell-free translation onto CHAPS-washed Hevea rubber particles (WRPs), which keep small amounts of endogenous proteins
# T2 sequence (Q8L5B7 1-290): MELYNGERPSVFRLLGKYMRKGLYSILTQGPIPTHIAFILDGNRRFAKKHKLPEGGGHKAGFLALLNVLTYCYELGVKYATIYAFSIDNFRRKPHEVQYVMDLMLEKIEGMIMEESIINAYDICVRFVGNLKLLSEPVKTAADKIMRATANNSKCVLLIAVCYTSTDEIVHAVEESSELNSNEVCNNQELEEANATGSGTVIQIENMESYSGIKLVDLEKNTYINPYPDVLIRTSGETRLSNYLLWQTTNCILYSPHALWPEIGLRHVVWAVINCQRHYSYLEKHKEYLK
# LsCPT3-LsCPTL2 = biological target: T3, LsCPT3-LsCPTL2 (Lactuca sativa, UniProt A0A0A0QMT0); test: as above; settings: 15 µM FPP, 5 mM MgCl2, pH 7.5, 30 °C; on Hevea WRPs; labelled compound
# T3 construct: full-length synthetic CDSs (LsCPT3 in pEU-E01-His-TEV-MCS-N2, LsCPTL2 in pEU-E01-His-TEV-MCS-C1); wheat germ cell-free co-translation onto CHAPS-washed Hevea rubber particles (WRPs); with cis-prenyltransferase-like 2
# T3 sequence (A0A0A0QMT0 1-296): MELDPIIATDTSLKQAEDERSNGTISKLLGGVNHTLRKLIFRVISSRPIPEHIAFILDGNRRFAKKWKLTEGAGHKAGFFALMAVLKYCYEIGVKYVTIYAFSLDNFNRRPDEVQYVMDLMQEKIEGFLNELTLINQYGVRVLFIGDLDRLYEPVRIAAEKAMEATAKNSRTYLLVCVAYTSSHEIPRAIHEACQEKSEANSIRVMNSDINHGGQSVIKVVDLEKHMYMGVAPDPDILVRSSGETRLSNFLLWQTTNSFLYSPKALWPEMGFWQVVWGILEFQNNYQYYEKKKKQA
# T3 sequence (A0A0A0QP73 1-244 partner): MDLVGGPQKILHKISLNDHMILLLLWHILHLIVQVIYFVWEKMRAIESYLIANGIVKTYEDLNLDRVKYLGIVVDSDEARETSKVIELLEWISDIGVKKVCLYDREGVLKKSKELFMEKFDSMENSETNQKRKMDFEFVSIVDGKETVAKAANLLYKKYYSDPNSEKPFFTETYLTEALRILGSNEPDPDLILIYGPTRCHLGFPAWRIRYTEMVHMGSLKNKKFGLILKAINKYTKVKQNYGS
Structure (SMILES),"14C-IPP incorporation into rubber, allylic substrate dependency (HRT1–HRBP–REF)","14C-IPP incorporation into rubber, net of vector-control WRPs (HRT1)","14C-IPP incorporation into rubber, net of vector-control WRPs (LsCPT3-LsCPTL2)"
"CC(C)=CCC/C(C)=C/CC/C(C)=C/COP(=O)(O)OP(=O)(O)O [FPP, E,E-farnesyl diphosphate]",the RTase was most active with FPP (C15),,
"C=C(C)CCOP(=O)(O)OP(=O)(O)O [IPP, isopentenyl diphosphate]",,introduction of HRT1 onto WRPs distinctly increased the RTase activity (Figure 9A),Co-expression of LsCPTL2 with LsCPT3 resulted in an increase of the activity of LsCPT3
